Where two headings read alike, the source gives them in different places.
Assays:
Type in all cases: in vivo
[1] = system: Digitaria sanguinalis (DIGSA); experiment: Pre-emergence herbicidal action against DIGSA; settings: dosage 320 g/ha
How it was run: (§1)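 Application rates ran to 320 g/ha or lower, with several dosages tested on the same weeds. The compound, as wettable powder or emulsion concentrate, is sprayed pre-emergence onto soil over sown seeds; greenhouse growth follows, and effect is rated visually after roughly 3 weeks.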

[2] = system: Triticum aestivum (TRZAS); settings: crop plant compatibility, effect vs untreated controls
How it was run: (§2)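 One-leaf-stage crops (2–3 wk post-sowing, sandy loam, greenhouse) sprayed on green parts; 0.5% additive, 600 l/ha water. Rated by eye ~3 wk later, % vs untreated; suffixes a/b/c mark different dosages.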

Zea mays (ZEAMX) [3] = settings: for Post-emergence action against ZEAMX in %: crop plant compatibility, effect vs untreated controls
How it was run: as §2

Oryza sativa (ORYSA) [4] = settings: crop plant compatibility
How it was run: as §2

[5] = system: Triticum aestivum (TRZAS); settings: pre-emergence, 80 g/ha, crop plant compatibility, in comparison to untreated controls
How it was run: (§3)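 Crop injury rated visually in percent against untreated plants roughly 3 weeks after treatment (0% no effect, 100% plants dead). Compounds, as WP or EC with 0.5% additive in 600 l/ha water, were applied to the covering soil right after sowing; greenhouse growth. Suffixes a, b, c denote different dosages.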

Zea mays (ZEAMX) [6] = settings: pre-emergence, crop plant compatibility, in comparison to untreated controls
How it was run: as §3

Oryza sativa (ORYSA) [7] = settings: pre-emergence, crop plant compatibility, in comparison to untreated controls
How it was run: as §3

[8] = system: Alopecurus myosuroides (ALOMY); experiment: Pre-emergence herbicidal action against ALOMY; settings: 320 g/ha; scored visually after about 3 weeks; 100% = plants have died
How it was run: as §1

Viola tricolor (VIOTR) = experiment: Pre-emergence herbicidal action against VIOTR
How it was run: as §1

Glycine max (GLXMA) [9] = experiment: Post-emergence crop plant compatibility, GLXMA; settings: post-emergence, effect in comparison to untreated controls
Method: Seeds of monocotyledonous and dicotyledonous weeds and crop plants are placed in sandy loam in plastic or organic planting pots, covered with soil and cultivated in a greenhouse under controlled growth conditions. 2 to 3 weeks after sowing, the test plants are treated at the one-leaf stage. The compounds of the invention, formulated in the form of wettable powders (WP) or as emulsion concentrates (EC), are then sprayed onto the green parts of the plants as aqueous suspension or emulsion with addition of 0.5% additive at a water application rate of 600 l/ha (converted). After the test plants have been kept in the greenhouse under optimum growth conditions for about 3 weeks, the activity of the preparations is rated visually in comparison to untreated controls. For example, 100% activity=the plants have died, 0% activity=like control plants.
The observed effects on selected crop plants are reported here in comparison to the untreated controls (values in %). The appendices “a”, “b” and “c” give differentiation by dosage used with otherwise the same crop plants tested.

Setaria viridis (SETVI) [10] = experiment: Post-emergence herbicidal action against SETVI; settings: dosage 80 g/ha
How it was run: (§4)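 Values are percent visual activity (0% like control, 100% plants dead) after about 3 weeks in the greenhouse. Treatment: post-emergence spray at one-leaf stage, 600 l/ha spray volume, 0.5% additive, doses 320 g/ha or lower.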

[11] = system: Alopecurus myosuroides (ALOMY); experiment: Post-emergence herbicidal action against ALOMY; settings: 80 g/ha, visual rating about 3 weeks after treatment vs untreated controls (100% = plants have died, 0% = like control plants)
How it was run: as §4

[12] = system: Echinochloa crus-galli (ECHCG); experiment: Pre-emergence herbicidal action against ECHCG; settings: dosage 320 g/ha
How it was run: as §1

Glycine max (GLXMA) [13] = settings: pre-emergence, 80 g/ha, crop plant compatibility, in comparison to untreated controls
How it was run: as §3

[14] = system: Matricaria inodora (MATIN); experiment: Pre-emergence herbicidal action against MATIN; settings: dosage 320 g/ha
How it was run: as §1

[15] = system: Abutilon theophrasti (ABUTH); experiment: Pre-emergence herbicidal action against ABUTH; settings: Dosage column 320 g/ha (title prints 3200 g/ha); scored visually after about 3 weeks; 100% = plants have died
How it was run: as §1

[16] = system: Abutilon theophrasti (ABUTH); experiment: Post-emergence herbicidal action against ABUTH; settings: 80 g/ha, visual rating about 3 weeks after treatment vs untreated controls (100% = plants have died, 0% = like control plants)
How it was run: as §4

[17] = system: Pharbitis purpurea (PHBPU); experiment: Pre-emergence herbicidal action against PHBPU; settings: dosage 320 g/ha
How it was run: as §1

[18] = system: Matricaria inodora (MATIN); experiment: Post-emergence herbicidal action against MATIN; settings: dosage 80 g/ha
How it was run: as §4

Lolium rigidum (LOLRI) [19] = experiment: Pre-emergence herbicidal action against LOLRI; settings: dosage 320 g/ha
How it was run: as §1

Lolium rigidum (LOLRI) [20] = experiment: Post-emergence herbicidal action against LOLRI; settings: dosage 80 g/ha
How it was run: as §4

[21] = system: Echinochloa crus-galli (ECHCG); experiment: Post-emergence herbicidal action against ECHCG; settings: dosage 80 g/ha
How it was run: as §4

[22] = system: Pharbitis purpurea (PHBPU); experiment: Post-emergence herbicidal action against PHBPU; settings: dosage 80 g/ha
How it was run: as §4

Setaria viridis (SETVI) [23] = experiment: Pre-emergence herbicidal action against SETVI; settings: dosage 320 g/ha
How it was run: as §1

Brassica napus (BRSNW) = settings: 80 g/ha, crop plant compatibility, in comparison to untreated controls
How it was run: as §3

[24] = system: Amaranthus retroflexus (AMARE); experiment: Pre-emergence herbicidal action against AMARE; settings: 320 g/ha, visual scoring after about 3 weeks vs untreated controls
How it was run: as §1

[25] = system: Polygonum convolvulus (POLCO); experiment: Pre-emergence herbicidal action against POLCO; settings: dosage 320 g/ha
How it was run: as §1

Avena fatua (AVEFA) = experiment: Post-emergence herbicidal action against AVEFA; settings: 80 g/ha, visual rating about 3 weeks after treatment
How it was run: as §4

[26] = 20 g/ha, effect vs untreated controls
[27] = 80 g/ha, effect in comparison to untreated controls

Post-emergence action against TRZAS in % ([2]; 20 g/ha) [%] | Post-emergence action against TRZAS in % ([2]; 80 g/ha) [%] | Post-emergence action against ZEAMX in % (Zea mays (ZEAMX) [3]; 80 g/ha) [%] | Post-emergence action against ORYSA in % (Oryza sativa (ORYSA) [4]; [26]) [%] | Post-emergence action against ORYSA in % (Oryza sativa (ORYSA) [4]; [27]) [%] | Pre-emergence action against TRZAS in % [5] [%] | Pre-emergence action against ZEAMX in % (Zea mays (ZEAMX) [6]; 80 g/ha) [%] | Pre-emergence action against ORYSA in % (Oryza sativa (ORYSA) [7]; 80 g/ha) [%] | Pre-emergence action against ORYSA in % (Oryza sativa (ORYSA) [7]; 320 g/ha) [%] | Post-emergence action against GLXMA in % (Glycine max (GLXMA) [9]; 20 g/ha) [%] | Post-emergence action against GLXMA in % (Glycine max (GLXMA) [9]; 80 g/ha) [%] | Compound | Pre-emergence action against DIGSA in % [1] [%] | Pre-emergence action against ALOMY [8] [%] | Pre-emergence action against VIOTR in % (Viola tricolor (VIOTR); 320 g/ha, Viola tricolor) [%] | Post-emergence action against SETVI in % (Setaria viridis (SETVI) [10]) [%] | Post-emergence action against ALOMY in % [11] [%] | Pre-emergence action against ECHCG in % [12] [%] | Pre-emergence action against MATIN in % [14] [%] | other results
0 | 0 | 0 | 0 | 0 | 20 | 10 | 0 | 0 | 0 | 0 | COC(=O)CN(C)C(=O)COc1nn(-c2ccccn2)c(-c2ccc(F)nc2)c1Br [Example I-114] | 90 | 100 | 90 | 80 | 90 |  |  | Post-emergence action against ZEAMX in % (crop plant compatibility) (Zea mays (ZEAMX) [3]; 20 g/ha, ZEAMX, effect in comparison to untreated controls): 0%; Pre-emergence action against ZEAMX in % (Zea mays (ZEAMX) [6]; 320 g/ha): 20%; Pre-emergence action against VIOTR in % (Viola tricolor (VIOTR); dosage 80 g/ha): 80%
 | 0 | 0 |  | 0 | 0 | 20 | 0 | 20 |  | 20 | O=C(CSc1nn(-c2ccccn2)c(-c2cncc(F)c2)c1Br)NC1CC1 [Example I-201] |  |  |  |  |  | 90 | 80 | Post-emergence action against TRZAS in % ([2]; 320 g/ha): 10%; Post-emergence action against ZEAMX in % (Zea mays (ZEAMX) [3]; 320 g/ha): 20%; Post-emergence action against ORYSA in % (Oryza sativa (ORYSA) [4]; 320 g/ha, effect in comparison to untreated controls): 0%; Pre-emergence action against GLXMA in % (Glycine max (GLXMA) [13]): 0%; Pre-emergence action against ABUTH [15]: 80%
10 |  |  | 0 | 0 | 10 | 10 | 10 |  | 20 |  | CCOC(=O)CSc1nn(-c2ccccn2)c(-c2cncc(F)c2)c1Br [Example I-125] | 100 | 80 | 90 | 80 | 90 | 80 | 90 | Post-emergence action against ABUTH in % [16]: 80%; Pre-emergence action against PHBPU in % [17]: 90%; Post-emergence action against MATIN in % [18]: 80%; Pre-emergence action against LOLRI in % (Lolium rigidum (LOLRI) [19]): 80%; Post-emergence action against LOLRI in % (Lolium rigidum (LOLRI) [20]): 80%; Post-emergence action against ECHCG in % [21]: 90%; Post-emergence action against PHBPU in % [22]: 80%; Pre-emergence action against SETVI in % (Setaria viridis (SETVI) [23]): 90%; Pre-emergence action against BRSNW in % (Brassica napus (BRSNW)): 20%; Pre-emergence action against AMARE in % [24]: 100%; Pre-emergence action against POLCO in % [25]: 90%; Post-emergence action against AVEFA in % (Avena fatua (AVEFA)): 90%

From patent US20240041042A1, “1-(PYRIDYL)-5-AZINYLPYRAZOLE DERIVATIVES, AND THEIR USE FOR CONTROL OF UNDESIRED PLANT GROWTH” (Bayer Aktiengesellschaft, priority 2020, published 2024)
